Assay results from US10532040B2, “Methods of treating cancer with herbacetin” (REGENTS OF THE UNIVERSITY OF MINNESOTA, priority 2011, dated 2020).
Entries after “also recorded” stand apart in the source; their conditions may differ.

Assays:
[1] = test system: SKH-1 hairless mice, DMBA/TPA; assay: TPA-induced skin cancer prevention study, 30 weeks (Example 2); type: in vivo, mouse
Method: For the effect of herbacetin on preventing TPA-induced skin cancer, SKH-1 hairless mice were divided into 5 groups of 26-30 mice/group. All mice were initiated with 200 nmol DMBA applied topically on the dorsal surface. Two weeks later, TPA (17 nmol) was applied topically on the dorsal surface twice a week for a total of 30 weeks. Four groups of mice were treated with herbacetin (20, 100, 200, or 500 nmol) 30 min before application of TPA.

[2] = test system: SKH-1 hairless mice, solar UV-induced skin tumors; assay: solar UV induced-skin tumor mouse model; type: in vivo; details: herbacetin 100 or 500 nmol topical for 7 weeks; relative to vehicle group
Method: Mice were exposed to solar-UV (48 kJ/UVA, 2.9 kJ/UVB) 3 times weekly for 12 weeks. The solar UV treatment was discontinued and at twenty weeks later, mice were topically treated with 100 or 500 nmol of herbacetin (in acetone) for an additional 7 weeks. Mice (8-9 weeks old) were divided into three groups: 1) solar UV+vehicle group (n=4); 2) solar UV+100 nmol of herbacetin (n=4) group; 3) solar UV+500 nmol of herbacetin (n=4). The volume of tumors per mouse was recorded weekly.

ODC [3] = target: T1, ODC (Mus musculus, UniProt P00860); assay: ODC activity in TPA-treated JB6 mouse skin epidermal cells; type: cell-based
T1 construct: endogenous in cells; host or cells: JB6 mouse skin epidermal cells, TPA-treated
T1 sequence (P00860 1-461): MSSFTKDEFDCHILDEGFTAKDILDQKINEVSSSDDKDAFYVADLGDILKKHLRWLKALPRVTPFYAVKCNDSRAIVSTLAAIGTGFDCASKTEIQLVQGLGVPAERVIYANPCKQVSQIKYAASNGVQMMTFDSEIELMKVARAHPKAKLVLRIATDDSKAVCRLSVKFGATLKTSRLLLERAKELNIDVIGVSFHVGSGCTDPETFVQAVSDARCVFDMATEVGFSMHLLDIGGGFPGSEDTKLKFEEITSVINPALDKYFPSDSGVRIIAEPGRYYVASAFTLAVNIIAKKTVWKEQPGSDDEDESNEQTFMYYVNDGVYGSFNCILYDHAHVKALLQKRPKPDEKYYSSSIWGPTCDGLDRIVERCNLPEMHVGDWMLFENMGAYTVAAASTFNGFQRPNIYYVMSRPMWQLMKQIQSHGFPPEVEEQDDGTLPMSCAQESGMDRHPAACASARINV
Method: (§1) ODC activity was measured as the release of CO2 from L-[1-C^14] ornithine as previously described ([…]).

ODC [4] = target: T2, ODC (Homo sapiens, UniProt P11926); assay: ODC enzyme assay with recombinant ODC protein; type: biochemical; details: in vitro
T2 sequence (P11926 1-461): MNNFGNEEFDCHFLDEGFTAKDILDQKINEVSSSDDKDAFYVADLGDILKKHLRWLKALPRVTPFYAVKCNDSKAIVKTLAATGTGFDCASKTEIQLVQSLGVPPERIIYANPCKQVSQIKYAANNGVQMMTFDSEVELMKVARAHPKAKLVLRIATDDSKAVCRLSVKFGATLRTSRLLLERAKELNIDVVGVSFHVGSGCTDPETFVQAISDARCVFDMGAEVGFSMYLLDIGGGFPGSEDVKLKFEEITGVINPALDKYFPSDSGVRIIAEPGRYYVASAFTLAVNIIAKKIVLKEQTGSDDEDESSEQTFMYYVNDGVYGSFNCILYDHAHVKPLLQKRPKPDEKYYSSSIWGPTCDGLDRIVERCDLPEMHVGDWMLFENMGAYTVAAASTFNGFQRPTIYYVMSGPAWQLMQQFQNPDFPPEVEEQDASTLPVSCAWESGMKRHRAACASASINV
Method: (§2) FIGS. 5A-5E. The effect of herbacetin on ODC activity was assessed in (a) DLD-1 and (b) HCT116 colon cancer cells. Cell lysates were incubated for 15 min with reaction buffer and different doses of herbacetin or DFMO and then incubated at 37° C. for 1 h. Herbacetin (c) and kaempferol (d) were modeled as allosteric inhibitors with the ODC crystal structure. (e) The effect of herbacetin or kaempferol on ODC activity was assessed using a human ODC recombinant protein. Each reaction was incubated at 37° C. for 1 h and ODC activity was measured as the release of CO2 from L-[1-C^14] ornithine. Data are represented as means±S.D. of triplicate values. The asterisk (*) indicates a significant difference (p<0.05) between herbacetin-treated samples compared to untreated or kaempferol-treated samples.
as §1

ODC [5] = target: T2, ODC; assay: ODC activity in colon cancer cells (HCT116, DLD-1 lysates); type: cell-based; set-up: endogenous in cells; host or cells: HCT116 and DLD-1 colon cancer cells (lysates); details: compared with DFMO
Method: as §2, §1

[6] = test system: HCT116 colon cancer cells; assay: anchorage independent HCT116 colon cancer cell growth; type: cell-based
Method: FIGS. 3A-3H. Anticancer effect of herbacetin. (a) The effect of herbacetin on ODC activity in colon cancer cell lines was measured as the release of CO2 from L-[1-C^14] ornithine. […] (b) The effect of herbacetin and DFMO on the growth of colon cancer cells and (c) TPA-induced JB6 cell growth was compared. Cells were incubated for 72 h and growth was estimated using the MTS assay. (d) The effect of herbacetin on anchorage independent HCT116 colon cancer cell growth and (e) TPA-induced JB6 cell transformation was assessed. Cells were incubated for 2 weeks and then colonies were counted using a microscope and the Image-Pro PLUS (v.6) computer software program. The effect of herbacetin on AP-1 reporter activity in (f) HCT116 colon cancer cells and (g) TPA-induced AP-1 reporter activity in JB6 mouse epidermal cells was analyzed using the substrates included in the reporter assay system. Data are represented as means±S.D. of triplicate values from three independent experiments and the asterisk (*) indicates a significant (p<0.05) effect of herbacetin or DFMO compared to untreated or TPA-treated controls. (h) The effect of herbacetin on the phosphorylation of ERK1 and ERK2 in HCT116 colon cancer cells was determined by Western blotting. Similar results were observed from two independent experiments.

O=c1c(O)c(-c2ccc(O)cc2)oc2c(O)c(O)cc(O)c12 [herbacetin, 3,5,7,8,4′-Pentahydroxyflavone]
tumor growth induced by TPA ([1]; herbacetin 20, 100, 200 or 500 nmol 30 min before TPA, 30 weeks): decreased tumor growth
mice developing papillomas (incidence) ([1]; vs untreated control mice): Fewer mice developed papillomas
number of papillomas ([1]; vs untreated control mice): fewer papillomas (dose-dependent)
tumor size ([1]; vs untreated controls): significantly smaller tumors
size (volume) of solar UV-induced skin tumors [2]: significantly decreased
suppression of ODC activity (ODC [3]): markedly more effective than DFMO; also recorded: inhibit TPA-induced ODC1 activity
ODC activity (release of CO2 from L-[1-C^14] ornithine) (ODC [4]): inhibited ODC activity similarly
suppression of ODC activity (ODC [5]): more effectively; also recorded: markedly more effective than DFMO
effectiveness relative to DFMO in suppressing anchorage independent growth ([6]; HCT116, 2 weeks): at least 20 fold
potency relative to DFMO ([6]; general statement, test not specified): 20-50 times
